≈ marks a conversion by molar mass, not a printed value.
Legend:
[1] = biological target: T1, Epoxide hydrolase B (Mycobacterium tuberculosis) (UniProt P95276); test: Inhibition of Mycobacterium tuberculosis recombinant EphB expressed in Escherichia coli BL21 using CMNPC as substrate at 10 nM after 30 mins by fluorescent assay relative to control
T1 sequence (whole entry): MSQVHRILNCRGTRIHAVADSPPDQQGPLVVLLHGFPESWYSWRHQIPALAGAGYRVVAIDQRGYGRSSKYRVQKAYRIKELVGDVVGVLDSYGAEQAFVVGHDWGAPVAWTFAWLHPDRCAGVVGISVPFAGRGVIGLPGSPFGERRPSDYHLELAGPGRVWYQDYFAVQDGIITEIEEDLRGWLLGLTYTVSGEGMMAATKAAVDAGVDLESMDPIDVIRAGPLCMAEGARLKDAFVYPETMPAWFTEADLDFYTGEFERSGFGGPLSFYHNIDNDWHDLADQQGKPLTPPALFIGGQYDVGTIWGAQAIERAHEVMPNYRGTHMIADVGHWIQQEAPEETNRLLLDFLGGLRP

[2] = system: Klebsiella pneumoniae; test: Antibacterial activity against Klebsiella pneumoniae; assay type: functional
[3] = system: Enterococcus faecium; test: Antibacterial activity against Enterococcus faecium; assay type: functional
[4] = system: Vero; test: Cytotoxicity against african green monkey Vero cells after 72 hrs by MTT assay; assay type: cell-based; details: Chlorocebus sabaeus
[5] = system: Escherichia coli; test: Antibacterial activity against Escherichia coli K12; assay type: functional; details: K-12
[6] = biological target: T2, Hydrolase, alpha/beta hydrolase fold family (Mycobacterium tuberculosis) (UniProt O69638); test: Inhibition of Mycobacterium tuberculosis recombinant EphE expressed in Escherichia coli BL21 using CMNPC as substrate at 10 nM after 30 mins by fluorescent assay relative to control
T2 sequence (whole entry): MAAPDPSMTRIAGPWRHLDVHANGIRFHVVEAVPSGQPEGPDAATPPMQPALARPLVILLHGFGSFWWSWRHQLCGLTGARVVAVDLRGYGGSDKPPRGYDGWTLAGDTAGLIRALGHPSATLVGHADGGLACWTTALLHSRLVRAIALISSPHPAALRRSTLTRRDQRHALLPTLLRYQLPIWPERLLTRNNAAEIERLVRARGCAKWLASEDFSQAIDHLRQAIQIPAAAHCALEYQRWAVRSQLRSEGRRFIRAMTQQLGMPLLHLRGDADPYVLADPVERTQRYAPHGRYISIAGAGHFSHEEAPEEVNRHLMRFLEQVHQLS

[7] = system: Mycobacterium tuberculosis; test: microbe, parasite or virus in culture; details: H37Rv, 168 h
[8] = system: Escherichia coli; test: Antibacterial activity against Escherichia coli […] TolC; assay type: functional
[9] = system: Bacillus anthracis; test: microbe, parasite or virus in culture
[10] = system: Pseudomonas aeruginosa; test: Antibacterial activity against Pseudomonas aeruginosa; assay type: functional
[11] = biological target: T3, Bifunctional epoxide hydrolase 2 (Homo sapiens, UniProt P34913); test: Inhibition of human recombinant soluble epoxide hydrolase using CMNPC as substrate after 10 mins by fluorescent assay
T3 sequence (P34913 whole entry): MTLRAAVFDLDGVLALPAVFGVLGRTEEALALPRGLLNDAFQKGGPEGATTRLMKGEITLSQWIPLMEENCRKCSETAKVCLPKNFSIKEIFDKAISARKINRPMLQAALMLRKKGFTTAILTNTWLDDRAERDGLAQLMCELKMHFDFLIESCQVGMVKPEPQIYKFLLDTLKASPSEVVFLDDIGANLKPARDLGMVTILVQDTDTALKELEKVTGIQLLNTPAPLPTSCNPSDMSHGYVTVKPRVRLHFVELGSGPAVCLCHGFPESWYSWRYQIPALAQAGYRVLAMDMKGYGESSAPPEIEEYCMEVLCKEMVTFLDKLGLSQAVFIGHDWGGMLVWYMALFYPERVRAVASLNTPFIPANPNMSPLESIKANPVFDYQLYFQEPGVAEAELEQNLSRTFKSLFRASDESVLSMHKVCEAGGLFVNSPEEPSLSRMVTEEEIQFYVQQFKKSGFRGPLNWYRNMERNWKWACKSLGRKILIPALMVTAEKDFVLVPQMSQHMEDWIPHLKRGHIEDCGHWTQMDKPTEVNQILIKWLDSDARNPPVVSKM

[12] = system: Staphylococcus aureus; test: Antibacterial activity against Staphylococcus aureus; assay type: functional
[13] = system: Mycolicibacterium smegmatis; test: microbe, parasite or virus in culture; details: str. MC2 155, 168 h
[14] = system: Enterococcus faecalis; test: Antibacterial activity against Enterococcus faecalis; assay type: functional

SMILES	inhibition [1] [%]	MIC [2] [mg/L]	MIC [3] [mg/L]	IC50 [4] [mg/L]	MIC [5] [mg/L]	inhibition [6] [%]	MIC [7] [mg/L]	MIC [8] [mg/L]	MIC [9] [mg/L]	MIC [10] [mg/L]	IC50 [11] [µM]	MIC [12] [mg/L]	MIC [13] [mg/L]	MIC [14] [mg/L]
CC(C)NC(=O)NC1C2CC3CC(C2)CC1C3 (stereo not given)	27.2	> 200	> 200	23.4 (≈ 99 µM)	> 200	57.3	50 (≈ 212 µM)	> 200	> 200	> 200	0.0844	> 200	> 100	> 200
CC[C@@H](CO)NCCN[C@@H](CC)CO [ETHAMBUTOL]							0.01 (≈ 0.0489 µM)							
O=C(NCC12CC3CC(CC(C3)C1)C2)Nc1ccc(F)c(F)c1F	44.2	> 200	> 200	1.18 (≈ 3.49 µM)	> 200	90.8	0.01 (≈ 0.0296 µM)	1.6 (≈ 4.73 µM)	1.6 (≈ 4.73 µM)	50 (≈ 148 µM)	0.0004	3.12 (≈ 9.22 µM)	0.8 (≈ 2.36 µM)	> 200
O=C(Nc1ccc(F)c(F)c1F)NC1C2CC3CC(C2)CC1C3 (stereo not given)		> 200	> 200		> 200	71.4		> 200	> 200	> 200		> 200		> 200
Cc1ccc(NC(=O)NC(C)CCc2ccccc2)cc1Cl (stereo not given)	81.9	> 200	> 200	> 400	> 200	97.4	6 (≈ 18.9 µM)	> 200	> 200	> 200	0.015	> 200	25 (≈ 78.9 µM)	> 200
O=C(Nc1ccc(F)c(F)c1F)NC1CCCCC1	96.4	> 200	> 200	15.9 (≈ 58.4 µM)	> 200	65.6		> 200	> 200	> 200	0.0012	> 200	12.5 (≈ 45.9 µM)	> 200
CC(C)(C)NC(=O)NC1C2CC3CC(C2)CC1C3 (stereo not given)	20.7	> 200	> 200	372 (≈ 1490 µM)	> 200	55.4	12.5 (≈ 49.9 µM)	> 200	> 200	> 200	0.0242	> 200	> 200	> 200
O=C(Nc1ccc(F)c(F)c1F)OC1C2CC3CC(C2)CC1C3 (stereo not given)	10.2	> 200	> 200		> 200	21.4	6 (≈ 18.4 µM)	12.5 (≈ 38.4 µM)	> 200	> 200	0.464	> 200	50 (≈ 154 µM)	> 200
O=C(Nc1ccc(F)c(F)c1F)NC1CCCC1	86.4	> 200	> 200		> 200	36	50 (≈ 194 µM)	> 200	> 200	> 200	0.0562	> 200	200 (≈ 774 µM)	> 200
CCOCCNC(=O)NC12CC3CC(CC(C3)C1)C2	18.7	> 200	> 200		> 200	17.6	50 (≈ 188 µM)	> 200	> 200	> 200	0.525	> 200	> 200	> 200
COc1ccc(NC(=O)NC2C3CC4CC(C3)CC2C4)cc1 (stereo not given)	95.1	> 200	> 200	13.4 (≈ 44.6 µM)		83.1	0.4 (≈ 1.33 µM)		> 200	> 200	0.0143	> 200	100 (≈ 333 µM)	> 200

Reference: ChEMBL document CHEMBL1817626, “The structure-activity relationship of urea derivatives as anti-tuberculosis agents” (Bioorg Med Chem, 2011)
